# Experimental data as given in article PMC11040934, “PI3Kγδ inhibition suppresses key disease features in a rat model of asthma” (Respiratory Research, 2024).
# Read-outs that look alike come from different tables or passages of the source.
# Assays:
# [1] = Rat plasma protein binding, blood to plasma ratio, unbound fraction in whole blood; assay type: in vitro ADME; conditions: for fraction unbound: rat
# Experimental: Next, cells were stained with Fc block (550,273, BD bioscience, 1:100; 20 mins, RT), CD45R-B220-PeCy7 (HIS24) (25–0460-82, eBioscience, 1:100), CD43-PE (W3/13) (202,812, Biolegend, 1:100), HIS48-FITC (11–0570-82, eBioscience, 1:100), CD11b-APC (562,102, BD Bioscience, 1:100). Cells were lysed and fixed with BD FACS lysing solution (349,202, BD Biosciences; 45 mins, RT) before FACS acquisition (BD LSRFortessa™). Data were analysed using FlowJo 9.9 software (TreeStar). FACS gating strategy: lymphocytes (FSC-A vs SSC-A), doublets exclusion (FSC-W vs FSC-H), neutrophil identification B220-, HIS48hi, CD43hi, SSC-Ahi, geom. MFI for CD11b on neutrophils. IC50 values were determined in Graph Pad through a nonlinear fit on log transform data: log inhibitor vs response, variable slope, 4 parameters. Fraction unbound in diluted whole blood is calculated using the following equation: fu^′=DF·fub/1+DF-1·fub where fu’ is the fraction unbound in diluted whole blood; fub is the fraction unbound in undiluted whole blood; DF is the dilution factor. Fraction unbound in 100% whole blood (fub) is calculated as fup/BP, where fup is the experimentally determined fraction unbound in undiluted plasma and BP is the experimentally determined blood to plasma partition ratio of drug Table 1.
# [2] = system: JAK/STAT and NF-κB pathways; experiment: Rat model of allergic asthma: lung pSTAT3, pSTAT5a,b and NF-κB p65, pathway specificity; assay type: in vivo, Brown Norway rat; conditions: i.t. 1 hr before OVA challenge; lung 2 hrs after challenge
# Experimental: 10 μg of protein from lung tissue extract were utilized in pAkt (T308); pSTAT3, pSTAT4 & STAT5a, b (Phospho-STAT Panel kit) MSD Assay plates (Meso Scale Delivery, USA) and run according to manufacturers’ instructions. Arbitrary electrochemiluminescence signals were read, the blank subtracted and values determined in each plate using a MSD S-Plex plate reader (Meso Scale Delivery, USA). […]
# 10 μg (5 μL) of nuclear tissue extract were utilized in NF-κB p65 TransAm Activation Assays (Active Motif, USA) and run according to manufacturer’s instructions. Optical density was determined utilizing a spectrophotometer, the blank was subtracted, and values determined (450 nm; Spectromax, UK).
# [3] = system: PI3K pathway (pAkt); experiment: Rat model of allergic asthma: lung tissue pAkt (T308), target engagement; assay type: in vivo, Brown Norway rat; conditions: i.t. 1 hr before OVA challenge; AZD8154 0.02, 0.1, 0.3 mg/kg, budesonide 3 mg/kg; lung 2 hrs after challenge
# Experimental: Male, adult, Brown Norway rats were obtained from Charles River Germany at a body weight range of 250-300 g. Animals were housed in temperature controlled individually ventilated cages in groups of 4 with food and water provided ad libitum. Animals underwent acclimatisation for at least 1 week prior to experimentation. Experiments were performed in accordance with the UK Home Office guidelines for animal welfare based on the Animals (Scientific Procedures) Act of 1986 and the ARRIVE guidelines (Fig. E2).
# Initially a time course study was performed, followed by a characterisation study with compound & clinical comparator. […]
# 5 μL of supernatant (1:50 dilution) was taken for Bradford Assay which was run according to manufacturers’ instructions (BioRad, USA). […] Absorbance was measured using a spectrophotometer and total protein values interpolated to standard curve (595 nm; Spectromax, UK).
# 10 μg of protein from lung tissue extract were utilized in pAkt (T308); pSTAT3, pSTAT4 & STAT5a, b (Phospho-STAT Panel kit) MSD Assay plates (Meso Scale Delivery, USA) and run according to manufacturers’ instructions. Arbitrary electrochemiluminescence signals were read, the blank subtracted and values determined in each plate using a MSD S-Plex plate reader (Meso Scale Delivery, USA).
# [4] = Lung tissue and plasma levels after intratracheal dosing (LC-MS/MS); assay type: in vivo
# Experimental: Initially a time course study was performed, followed by a characterisation study with compound & clinical comparator. For both studies, rats were sensitised on day 0, 14 and 21 by an intraperitoneal (i.p.) injection of 4 mL/kg (1 mL/rat) of ovalbumin (OVA;100 μg/rat) in Imject™ Alum (20 mg/rat aluminium hydroxide and 20 mg/rat magnesium hydroxide) or sham sensitised (Saline [Sal] in Imject™ Alum). On day 28 rats were challenged with 1% (w/v) aerosolised OVA in isotonic saline, or sham challenged with isotonic saline (30 mins).
# For the time course study, animals were terminally anaesthetized, via overdose i.p. with sodium pentobarbitone (200 mg/kg), 1–24 hrs post antigen challenge. For the compound study, animals were terminally anaesthetised, via overdose i.p. with sodium pentobarbitone (200 mg/kg), 2 or 24 hrs post antigen challenge. […]
# 50 μL plasma was protein precipitated by addition of 180 μL acetonitrile containing 0.2% formic acid & 50 nM internal standard. […] Plasma concentrations of AZD8154 were determined by liquid chromatography with tandem mass spectrometric detection (LC-MS/MS).
# Lung pieces were weighed and homogenised in a 1 mL ringer solution using bead-beating technology (Bertin Technologies, Montigny le Bretonneux, France). […] Lung concentrations of AZD8154 were determined by LC-MS/MS. […]
smiles,measurement,setting,value
Cc1nc(Nc2cccc(N3CCCC3=O)n2)sc1-c1cc2c(c(S(C)(=O)=O)c1)C(=O)N([C@@H](C)C1CC1)C2 [AZD8154],Rat B/P ratio,[1]; blood to plasma partition ratio,0.82
same,Rat fub,"[1]; fraction unbound in 100% whole blood, fup/BP",0.018
same,fraction unbound,"[1]; diluted whole blood (PI3K γ assay), fraction unbound in diluted whole blood, DF 1.05 (γ assay), read-out: fu’",0.0192
same,fraction unbound,"[1]; plasma, rat plasma, fraction unbound, read-out: Rat ppb (fu, %)",0.015
same,fraction unbound,"[1]; plasma, undiluted rat plasma, fraction, read-out: Rat plasma fu",0.015
same,"JAK/STAT pathway (pSTAT3, pSTAT5a,b) in lung tissue",[2],minimal impact
same,NF-κB pathway (NF-κB p65) in lung nuclear extract,[2],minimal impact
same,lung tissue pAkt levels,[3],dose related suppression
same,Mean concentration in lung tissue and plasma versus dose,"[4]; i.t. 0.02, 0.1, 0.3 mg/kg, 2 & 24 hrs post-challenge",increased with increasing dose
same,level in lung tissue compared to plasma,"[4]; i.t., up to 24 hrs post-dosing",significantly higher in the lung tissue
